The results in this text go back to patent US7700111B2, “Auditory nerve protection and re-growth” (The Regents of the University of Michigan, priority 2002, dated 2010).

“Also recorded” adds a separate entry of the source.

What all share (type): in vivo, guinea pig
Test [1] concerns cochlear vasculature. As to the kind of experiment: Cochlear blood flow (laser Doppler), blood pressure and vascular conductance after 8-iso-PGF2a / SQ29,548 infusion. Particulars: for blood pressure (BP) response / cochlear blood flow (CBF) response: after administration, dose series; for cochlear vascular conductance (VC = CBF/BP) response: intravenous infusion. The protocol:
(§1) The infusion rate was controlled by a syringe pump. Systemic infusions were achieved via a cannula inserted in the right jugular vein. Changes in cochlear blood flow (CBF) were measured with the fine probe of a laser Doppler flowmeter (LDF) placed on the bony surface of the cochlea. Arterial blood pressure (BP) and heart rate were monitored from a cannula in the right carotid artery. BP and CBF were continuously recorded, as was their ratio (CBF/BP) as a derived measure of cochlear vascular […] (VC). The results are shown if FIGS. 10-18.

The test system of test [2] is cochlear vasculature. As to the kind of experiment: Noise-induced cochlear vasoconstriction (120 dB, one hour). Particulars: given intraperitoneally 1 hour before noise exposure. The protocol: as §1
Three guinea pigs were exposed to high intensity (120 dB) noise for one hour (6×10 min, red lines in top panel). BP, CBF, and VC measurements were made during 2-min off-noise periods. Over the course of the exposure, there was pronounced vasoconstriction (VC) and decrease in cochlear blood flow (CBF), while BP remained stable (mean±SD).
Noise exposure was as in FIG. 15. However, when the antioxidant glutathione-monoethyl ester (GSHE) was given intraperitoneally 1 hour before noise exposure, the effect of noise on CBF and VC was eliminated.

Test [3] in a line: Noise-induced permanent ABR threshold shift. Particulars: 10 days after 4 kHz octave band noise, 115 dB SPL, 5 hours; 2, 4, 8, 16, 20 kHz; drug i.p. 30 min before noise; versus 0.9% NaCl. The protocol:
(§2) Each animal received a drug dose before either being noise-exposed for 5 hours or simply placed in the exposure chamber for 5 hours. Auditory brain stem responses (ABR) were measured 2 days before and 10 days after noise exposure or sham exposure. Immediately after the second ABR measurement, animals were sacrificed for histological examination or for measurement of 8-isoprostane.
(§3) Animals were assigned to one of 17 groups (see Table 3). Eight groups were used to assess the effects of these agents on noise-induced threshold (auditory brain stem response, ABR) sensitivity and hair cell damage (cytocochleogram). Nine groups were used to determine the effects on noise-induced lipid peroxidation. Groups were injected intraperitoneally with 5 ml/kg of 0.9% NaCl, 0.2 mg/ml (+)-MK-801, 0.2 mg/ml (−)-MK-801, 0.2 mg/ml L-NAME, 100 mg/ml NAC, or a mixture of 0.2 mg/ml (+)-MK-801 and 100 mg/ml NAC 30 min before being placed in the exposure chamber. Because of the high clearance of PD 174494, one group of animals received 5 ml/kg of 2 mg/ml PD 174494 intraperitoneally 30 min before and 2 hr into noise exposure. A control group received 5 ml/kg of 0.9% NaCl on the same time schedule.
Animals were anesthetized with xylazine (10 mg/kg) and ketamine (40 mg/kg) given intramuscularly. A differential active needle electrode was placed subcutaneously below the test ear and a reference electrode at the vertex. A ground electrode was positioned below the contralateral ear. The sound stimuli consisted of 15 ms tone bursts, with a rise-fall time of 1 ms at frequencies of 2, 4, 8, 16 and 20 kHz, and were generated using a Fordham Audio Generator (Model AG-298, Fordham Radio Supply, Hauppauge N.Y.). They were presented to the right external auditory meatus in a closed acoustic system through an ear bar connected to a transducer (Beyer DT-48, Beyer Dynamic, Farmingdale N.Y.). The sound intensity was varied by 5 dB intervals. One thousand twenty-four tone presentations given at the rate of 9 s^−1 were averaged using a microcomputer and custom software to obtain a waveform. Hearing threshold was defined by the consistent appearance of ABR peaks III or IV. Test/retest reliability was within 5 dB. After the second ABR measurement, the cochleae were harvested.
Animals were exposed to noise in a lighted and ventilated sound exposure chamber while having free access to food and water. The sound chamber was fitted with speakers driven by a noise generator and a power amplifier. Using a ½-inch Brūel and Kjaer condenser microphone and Fast Fourier Transform analyzer, sound levels were measured and calibrated at multiple locations within the sound chamber to ensure uniformity of the stimulus. The stimulus intensity varied by a maximum of 3 dB across measured sites within the exposure chamber. […]

The test system of test [4] is outer and inner hair cells. The test can be described thus: Hair cell count (cytocochleogram) after noise exposure. Particulars: for hair cell loss: hair cell type not specified; for inner hair cell loss / outer hair cell loss: region 9-13 mm from apex, 10 days after noise, versus 0.9% NaCl. The protocol:
as §2, §3
(§4) Animals were exposed to noise in a lighted and ventilated sound exposure chamber while having free access to food and water. The sound chamber was fitted with speakers driven by a noise generator and a power amplifier. Using a ½-inch Brūel and Kjaer condenser microphone and Fast Fourier Transform analyzer, sound levels were measured and calibrated at multiple locations within the sound chamber to ensure uniformity of the stimulus. The stimulus intensity varied by a maximum of 3 dB across measured sites within the exposure chamber. Animals were individually subjected to 4 kHz octave band noise, 115 dB SPL for 5 hours. Two hours after initiation, noise exposure was interrupted for 10 min to perform the second injection of 0.9% NaCl or PD 174494 in groups requiring it.
Animals were sacrificed under deep anesthesia. The bullae were quickly removed and transferred into 4% paraformaldehyde in 0.01 M phosphate-buffered saline (PBS)(pH 7.4). The bone near the apex, round window, and oval window was opened, followed by two gentle local perfusions from the apex with 1 ml of 4% paraformaldehyde each. The tissue was kept in the fixative for 12 hr. After removal of the bony capsule and the lateral wall tissues, the modiolar core including the organ of Corti was removed from the temporal bone. Following permeabilization with 0.3% Triton X-100 for 10 min, whole-mounts of the organ of Corti were stained for actin with fluorescent phalloidin for 30 min to outline hair cells and their stereocilia for a quantitative assessment (Raphael and Altschuler, Hear. Res., 31:173 [1991]). Slide preparations were observed under fluorescence microscopy and missing (as shown by scar formation) and present (as shown by intact stereocilia) hair cells in the sensory epithelium were counted from the apex to the base in 0.19 mm segments. Percent hair cell loss was calculated for each segment. A group mean cytocochleogram was created by averaging the loss at each segment. Differences were evaluated for statistical significance on the basis of data from the region 9-13 mm from apex, the region of greatest damage in a previous study (Ohinata et al., Hear. Res. 146: 28 [2000]).

Test [5] concerns 8-isoprostane. The test can be described thus: Cochlear 8-isoprostane (lipid peroxidation) by enzyme immunoassay after noise exposure. Particulars: for 8-isoprostane level in the lateral wall / 8-isoprostane level in the modiolar core / 8-isoprostane level in the organ of Corti: after noise exposure, versus 0.9% NaCl. The protocol:
as §2, §3, §4
Animals were anesthetized with xylazine (10 mg/kg) and ketamine (40 mg/kg) given intramuscularly and decapitated. The auditory bullae were removed and the bony capsule of the cochlea was immediately opened.
Guinea pig cochleae were dissected in ice-cold Hanks' balanced salt solution (HBSS, Gibco Laboratories, Grand Island, N.Y.: 1.25 mM CaCl2, 5.55 mM glucose, 0.81 mM MgSO4, 0.44 mM KH2PO4, 136.9 mM NaCl, 0.34 mM Na2HPO4, 5.4 mM KCl, 5.0 mM sodium HEPES, with pH titrated to 7.4 (with NaOH) and osmolality adjusted to 300±1 mOsm with NaCl). Lateral wall tissues (spiral ligament and stria vascularis) and organ of Corti were removed from the modiolar core. The tissues were transferred to a 0.05% dl-dithiothreitol solution to prevent auto-oxidation of arachidonic acid and homogenized with a homogenizer for 30 sec. The homogenate was centrifuged at 7,200×g for 15 min at 4° C. Proteins were measured in aliquots of the supernatant by the Bradford method (Bradford, Anal. Biochem. 72: 248 [1976]). Butyl hydroxytoluene was added to the supernatant to a concentration of 0.1%, followed by 200 μl of ethanol and another homogenization. The homogenate was centrifuged at 1,500×g for 10 min at 4° C. Two hundred μl of 15% KOH was added to the supernatant for determination of the levels of free and esterified 8-isoprostane, and the mixture was incubated at 40° C. for 1 hr. The solution was then acidified to pH 3 with HCl. The samples were applied to octadecylsilyl silica columns pre-activated with methanol and distilled water and subsequently washed with distilled water and then with hexane. 8-isoprostane was eluted with ethyl acetate containing 1% methanol, and the eluate was evaporated under N2 to dryness. The samples were dissolved in 30 μl of acetone and spotted on silica gel G thin layer chromatography plates, which were developed in chloroform/methanol/acetic acid/water (80:18:1:0.8, v/v). 8-isoprostane was located from the Rf of standards run on the same plate and visualized by spraying with 3.5% phosphomolybdic acid. […]

Setting [6] is: AICA infusion of ~25 μg/kg over 2 min, minimal BP change.

Regarding `CCCCC[C@H](O)/C=C/[C@@H]1[C@H](C/C=C\CCCC(=O)O)[C@@H](O)C[C@H]1O` [8-iso-PGF2a, 8-iso-prostaglandin F2a], the “BP during AICA infusion” value in test [1] (2 min AICA infusion, some of the subjects) is reported as “no significant elevation in BP”. In test [1] (setting [6]), the “decrease in CBF” value is on record as 25-30% and the “decrease in VC” value is reported as 25-30%. In test [1], the “blood pressure (BP) response” value is “increasing response”, the “cochlear blood flow (CBF) response” value is recorded as “increasing response” and the “cochlear vascular conductance (VC = CBF/BP) response” value is recorded as “dose-dependent constriction of the cochlear vasculature; also recorded: Strong concentration-dependent decrease; also recorded: clear dose-dependent decrease”. In test [1] (listed as 8-isoPGF2a), the “blood pressure (BP) response” value was “rapid and concentration-dependent change”; the “cochlear blood flow (CBF) response” value was “rapid and concentration-dependent change”; the “cochlear vascular conductance (VC = CBF/BP) response” value is given as “strong dose-dependent decrease”. In addition, the “dose at which the VC decrease approaches saturation” value in test [1] (intravenous, mean maximum VC response 1.5-2.5 min after infusion initiation) is listed as “approximately 30 mg/kg”. Besides, the “BP, CBF and VC response to AICA infusion” value in test [1] (sequential 1.25 min infusions via AICA, or 2 min AICA infusion) was “no significant response to the lower two doses; also recorded: dose-dependent constriction of the cochlear vasculature; also recorded: local vasoconstrictive response”.

Take `CCOC(=O)CNC(=O)[C@H](CS)NC(=O)CC[C@H](N)C(=O)O` [GSHE, glutathione-monoethyl ester]: in test [2], the “effect of noise on CBF” value is reported as “eliminated” and the “effect of noise on VC” value was “eliminated”.

Consider `COC(=O)[C@@H](N)CCCNC(=N)N[N+](=O)[O-]` [L-NAME, L-N^ω-Nitroarginine methyl ester], for which the “noise-induced ABR threshold shift” value in test [3] is reported as “significantly attenuated at 2 kHz; also recorded: increased at 20 kHz; also recorded: not threshold shift”. In test [4], the hair cell loss entry was “had no effect”, the “inner hair cell loss” value was “increased” and the “outer hair cell loss” value is given as “not affected”. In test [5], the “8-isoprostane level in the lateral wall” value was “suppressed; also recorded: decreased 8-isoprostane level”, the “8-isoprostane level in the modiolar core” value was “suppressed” and the “8-isoprostane level in the organ of Corti” value is reported as “decreased 8-isoprostane level in the organ of Corti”.

With `CC(=O)N[C@@H](CS)C(=O)O` [NAC, N-acetylcysteine], the “noise-induced ABR threshold shift” value in test [3] is on record as “significantly attenuated threshold shifts at all frequencies”. Moreover, in test [4], the hair cell loss entry is “successful in preventing hair cell loss”, the “inner hair cell loss” value was “attenuated; also recorded: some protective effect” and the “outer hair cell loss” value is listed as “attenuated”. Further, in test [5], the “8-isoprostane level in the lateral wall” value is reported as “attenuated”, the “8-isoprostane level in the modiolar core” value is given as “attenuated” and the “8-isoprostane level in the organ of Corti” value was “attenuated”.

As to `Cc1ccc(CC2(O)CCN(CCOc3ccc(O)cc3)CC2)cc1` [PD 174494], in test [3], the “noise-induced ABR threshold shift” value was “significantly attenuated noise-induced hearing loss at 2, 4 and 8 kHz; also recorded: decreased threshold shift”. Also, in test [4], the “inner hair cell loss” value is reported as “protected only inner hair cells” and the “outer hair cell loss” value is “protected only inner hair cells”. Moreover, the “inner hair cell loss” value in test [4] (listed as PD 174474) is “some protective effect”. In test [5], the “8-isoprostane level in the lateral wall” value was “did not influence”, the “8-isoprostane level in the modiolar core” value is on record as “suppressed” and the “8-isoprostane level in the organ of Corti” value is given as “suppressed; also recorded: less with PD 174494 than with the other treatments”. In addition, the “effect on 8-isoprostane formation relative to that of (+)-MK-801” value in test [5] (organ of Corti and modiolar core) is recorded as “about half”.

On to `O=C(O)CCC/C=C\C[C@@H]1[C@H](CNNC(=O)Nc2ccccc2)[C@H]2CC[C@@H]1O2` [SQ29,548], for which, in test [1] (35 mg/kg 8-iso-PGF2a i.v. before and after AICA infusion of antagonist, two subjects), the “decrease in cochlear vascular constriction” value came to 12%. Further, the “effect on vasoconstriction (VC) by isoPGF2a” value in test [1] (addition of the antagonist) is “blocked”. Moreover, the “maximum mean VC value during SQ29,548 infusion, less than after the initial 8-iso-PGF2a infusion” value in test [1] (continuous AICA infusion of antagonist, 8-iso-PGF2a about 75-95 mg/kg i.v. over 20 sec, three subjects) is 8-10%.

In the case of (+)-MK-801, in test [3], the “noise-induced ABR threshold shift” value is listed as “significantly attenuated threshold shifts at all frequencies; also recorded: decreased threshold shift”. In addition, in test [4], the hair cell loss result is “successful in preventing hair cell loss”, the “inner hair cell loss” value is “attenuated; also recorded: some protective effect” and the “outer hair cell loss” value is on record as “attenuated”. In test [5], the “8-isoprostane level in the lateral wall” value was “did not influence”, the “8-isoprostane level in the modiolar core” value is “attenuated” and the “8-isoprostane level in the organ of Corti” value was “attenuated”.

As to (−)-MK-801, in test [4], the “inner hair cell loss” value is “not affected” and the “outer hair cell loss” value was “decreased”. In addition, in test [5], the “8-isoprostane level in the lateral wall” value is reported as “did not affect”, the “8-isoprostane level in the modiolar core” value was “did not affect” and the “8-isoprostane level in the organ of Corti” value is “did not affect”.
